# Where two headings read alike, the source gives them in different places.
# Legend:
# sigma receptor = test: Sigma receptor binding, [^3 H]DTG, brain membranes (both sigma-1 and sigma-2 sites); set-up: species or system guinea pig
# Description: Sigma receptor binding assays using guinea pig brain membrane homogenates and the radioligand [^3 H]DTG were conducted as described by Weber et al.. […] Briefly, frozen whole guinea-pig brains (Biotrol, Indianapolis, Ind.) were homogenized in 10 volumes (w/v) of ice-cold 320 mM sucrose using a Brinkman polytron. The homogenate was centrifuged at 1,000× g for 20 minutes at 4° C. The supernatant was centrifuged at 20,000× g for 20 minutes at 4° C. The resulting pellet was resuspended in 10 initial volumes of 50 mM Tris/HCl buffer at pH 7.4 and centrifuged at 20,000× g for 20 minutes at 4° C. The resulting pellet was resuspended in 5 initial volumes ice-cold 50 mM Tris/Hcl […], and the final volume was adjusted to yield a protein concentration of 3 mg/ml. Aliquots of 20-ml were stored at -70° C. until used, with no detectable loss of binding.
# The protein concentration in the 1-ml final incubation volume was 800 ug/ml, corresponding to 32 mg of brain tissue (original wet weight) and to a tissue concentration within the linear range for specific binding. […] Incubations were terminated after 90 minutes at room temperature by addition of 4 ml of ice-cold 50 mM Tris/HCl (pH 7.4) and rapid filtration of the membrane suspension through Whatman GF/B glass-fiber filters under vacuum, using a 48-well cell harvester (Brandel). The filters were washed 2 times with 4 ml of 50 mM Tris/HCl (pH 7.4). Each filter was suspended in 10 ml Cytoscint (ICI), and radioactivity was measured by liquid scintillation spectrometry at a counting efficiency of approximately 50%. IC50 values were determined by non-linear regression analyis.
# (§1) Further sigma receptor binding assays against [^3 H]DTG and 5HT-1A binding assays were conducted according to the procedure outlined in the previous examples.
# Radioligand Binding. […] Briefly, membranes (P2 microsomal fraction) were diluted 1:3 with 50 mM Tris HCl (pH 7.4) and 0.4 mL was combined with 50 μL [^3 H]DTG (1-2 nM final concentration) and 50 μL of competing drug or buffer. After 90 min at room temperature, incubation was terminated by rapid filtration under vacuum through Whatman GF/B glass fiber filters using a Brandel 48-well cell harvester. Filters were washed three times with 5 mL of cold Tris HCl buffer and each filter was suspended in 5 mL of Cytoscint (ICN Biomedical). Radioactivity was measured by liquid scintillation spectrometry at a counting efficiency of 50%.
# sigma-1 binding site = biological target: T1, sigma-1 binding site (Cavia porcellus, UniProt Q60492); test: biochemical; set-up: species or system guinea pig; conditions: for sigma-2/sigma-1 selectivity: Example 8
# T1 construct: Guinea pig whole membrane preparations (P2 microsomal fraction); from tissue; host or cells: guinea pig membranes (P2 microsomal fraction), as described by Weber et al; brain inferred from the sister test b489
# T1 sequence (Q60492 whole entry): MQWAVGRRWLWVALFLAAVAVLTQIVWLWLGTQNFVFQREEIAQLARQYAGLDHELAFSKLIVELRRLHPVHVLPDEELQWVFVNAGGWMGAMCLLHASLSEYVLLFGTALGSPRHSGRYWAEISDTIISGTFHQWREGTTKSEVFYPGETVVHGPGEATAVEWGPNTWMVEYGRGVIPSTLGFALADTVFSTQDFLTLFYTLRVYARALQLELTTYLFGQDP
# Description: [^3 H]DTG was purchased from DuPont/NEN.
# The radioactivity on the filters was determined by scintillation spectrometry at an efficiency of about 50% using Cytoscint (ICN) scintillation fluid.
# sigma-2 binding site = biological target: T2, sigma-2 binding site (Cavia porcellus, UniProt H0V073); test: biochemical; set-up: species or system guinea pig
# T2 construct: Guinea pig whole membrane preparations (P2 microsomal fraction); from tissue; host or cells: guinea pig membranes (P2 microsomal fraction), as described by Weber et al; brain inferred from the sister test b489
# T2 sequence (H0V073 1-176): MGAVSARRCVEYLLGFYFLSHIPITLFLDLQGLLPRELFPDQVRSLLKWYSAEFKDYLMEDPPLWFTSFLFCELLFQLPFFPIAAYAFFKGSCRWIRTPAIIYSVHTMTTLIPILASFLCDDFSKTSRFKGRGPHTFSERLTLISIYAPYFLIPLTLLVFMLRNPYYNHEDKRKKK
# Description: For the standard equilibrium assay, the mixtures were incubated for 30 min. at room temperature, then filtered and the radioactivity determined as described above.
# 5-HT1A receptor = biological target: T3, 5-HT1A receptor (Rattus norvegicus, UniProt P19327); test: biochemical; type: binding; set-up: 47: 529-540 (1986); from tissue; host or cells: brain tissue, inferred from the cited method (rat frontal cortex); conditions: Table 6; read-out: 5HT-1A (nM) MEAN
# T3 sequence (P19327 1-422): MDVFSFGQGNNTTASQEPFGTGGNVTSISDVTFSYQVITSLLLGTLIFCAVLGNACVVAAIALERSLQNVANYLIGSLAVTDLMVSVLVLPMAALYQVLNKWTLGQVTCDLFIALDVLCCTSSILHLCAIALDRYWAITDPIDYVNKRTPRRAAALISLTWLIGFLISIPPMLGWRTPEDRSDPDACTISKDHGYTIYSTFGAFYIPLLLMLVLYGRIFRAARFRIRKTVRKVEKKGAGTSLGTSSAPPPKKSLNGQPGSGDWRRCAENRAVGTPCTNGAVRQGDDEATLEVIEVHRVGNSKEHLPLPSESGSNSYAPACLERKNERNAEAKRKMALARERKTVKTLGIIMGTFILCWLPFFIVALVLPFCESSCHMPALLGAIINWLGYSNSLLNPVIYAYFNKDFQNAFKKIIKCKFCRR
# Description: as §1
# [1] = Table 10, read-out: SIGMA-1 KI vs. 3H-PENTAZOCINE MEAN
# [2] = Table 10, read-out: SIGMA-2 KI vs. 3H-DTG + PENTAZOCINE MEAN
# [3] = Table 7, Phenyl-(CH2)x -NH--(CH2)y -Phenyl, read-out: Ki
# [4] = running text, Examples 5 and 6, read-out: sigma receptor Ki
# [5] = Table 16, read-out: Sigma-1 IC50
# [6] = less than about 0.1, see Table 10
compound,measurement,setting,value
"c1ccc(CCCN2CCCCC2)cc1 [Compound 140, N-(3-phenylpropyl)piperidine]",IC50,"sigma receptor; Table 6, [^3 H]DTG",69 nM
same,Ki,sigma-1 binding site; [1],48.9 nM
same,Ki,sigma-2 binding site; [2],147 nM
"c1ccc(CCCNCCc2ccccc2)cc1 [Compound 87, N-(3-phenylpropyl)phenethylamine]",IC50,"sigma receptor; Table 6, [^3 H]DTG",21.8 nM
same,Ki,sigma receptor; [3],19 nM
same,Ki,sigma receptor; [4],19 nM
same,Ki,sigma-1 binding site; [1],11.3 nM
same,IC50,"sigma-1 binding site; Table 14, read-out: IC50 (nM) at sigma-1",11.3 nM
same,IC50,"sigma-2 binding site; Example 9, read-out: sigma-2 IC50",90 nM
same,Ki,sigma-2 binding site; [2],90.1 nM
"c1ccc(CCCCCNCCc2ccccc2)cc1 [Compound 89, N-(5-phenylpentyl)phenethylamine]",IC50,"sigma receptor; Table 6, [^3 H]DTG",2.74 nM
same,Ki,sigma receptor; [3],2.4 nM
same,Ki,sigma receptor; [4],2.4 nM
same,IC50,5-HT1A receptor,106 nM
same,Ki,sigma-2 binding site; [2],14.6 nM
same,IC50,"sigma-2 binding site; Table 18, read-out: IC50 (nM) at sigma-2",15 nM
"CNCCCCCC1CCCCC1 [Compound 127, N-methyl-5-cyclohexylpentylamine]",IC50,"sigma receptor; Table 6, [^3 H]DTG",10.6 nM
same,Ki,sigma receptor; [4],10 nM
same,sigma-2/sigma-1 selectivity,sigma-1 binding site,51
same,Ki,sigma-1 binding site; [1],6.78 nM
same,S1/S2 Ratio,"sigma-1 binding site; Table 10, sigma-1/sigma-2",0.020
same,IC50,sigma-1 binding site; [5],6.8 nM
same,IC50 ratio of sigma-1/sigma-2 (sigma-1 selective compounds),sigma-1 binding site; [6],less than 0.1
same,Ki,sigma-2 binding site; [2],346 nM
"CN(C)CCCCCC1CCCCC1 [Compound 128, N,N-Dimethyl-5-cyclohexylpentylamine]",change in sigma receptor affinity vs. analog,"sigma receptor; Examples 5 and 6, [^3 H]DTG",~10 fold
same,IC50,"sigma receptor; Table 6, [^3 H]DTG",2.87 nM
same,Ki,sigma receptor; [4],2.6 nM
same,sigma-2/sigma-1 selectivity,sigma-1 binding site,650
same,Ki,sigma-1 binding site; [1],0.26 nM
same,S1/S2 Ratio,"sigma-1 binding site; Table 10, sigma-1/sigma-2",0.001
same,IC50,sigma-1 binding site; [5],0.26 nM
same,IC50 ratio of sigma-1/sigma-2 (sigma-1 selective compounds),sigma-1 binding site; [6],less than 0.1
same,Ki,sigma-2 binding site; [2],195 nM
"CN1CCN(CC/C=C/c2ccccc2)CC1 [Compound 103, N-(4-phenyl-3(E)-butenyl)-N'-methylpiperazine]",IC50,"sigma receptor; Table 6, [^3 H]DTG",75.2 nM
same,IC50 ratio of sigma-1/sigma-2 (sigma-1 selective compounds),sigma-1 binding site,less than 0.1
same,Ki,sigma-1 binding site; SIGMA-1 KI vs. 3H-P[…],28.7 nM
same,S1/S2 Ratio,"sigma-1 binding site; guinea pig, microsomes",0.011
same,Ki,sigma-2 binding site; [2],2540 nM
"CN1CCN(CCCCc2ccccc2)CC1 [Compound 106, N-(4-phenyl)-N'-methylpiperazine]",IC50,"sigma receptor; Table 6, [^3 H]DTG",49.8 nM
same,Ki,sigma-1 binding site; [1],19.3 nM
same,S1/S2 Ratio,"sigma-1 binding site; Table 10, sigma-1/sigma-2",0.022
same,IC50 ratio of sigma-1/sigma-2 (sigma-1 selective compounds),sigma-1 binding site; [6],less than 0.1
same,Ki,sigma-2 binding site; [2],899 nM
CN(CCCc1ccc2ccccc2c1)CCCc1ccc2ccccc2c1 [Compound 74],IC50,"sigma receptor; Table 6, [^3 H]DTG",81.9 nM
same,Ki,sigma-1 binding site; [1],30 nM
same,S1/S2 Ratio,"sigma-1 binding site; Table 10, sigma-1/sigma-2",0.065
same,IC50 ratio of sigma-1/sigma-2 (sigma-1 selective compounds),sigma-1 binding site; [6],less than 0.1
same,Ki,sigma-2 binding site; [2],461 nM
"CN(C)CCCCCc1ccccc1 [Compound 125, N,N-Dimethyl-5-phenylpentylamine]",IC50,"sigma receptor; Table 6, [^3 H]DTG",38.8 nM
same,Ki,sigma receptor; [4],35 nM
same,sigma-2/sigma-1 selectivity,sigma-1 binding site,96
same,Ki,sigma-1 binding site; [1],10.4 nM
same,S1/S2 Ratio,"sigma-1 binding site; Table 10, sigma-1/sigma-2",0.011
same,IC50 ratio of sigma-1/sigma-2 (sigma-1 selective compounds),sigma-1 binding site; [6],less than 0.1
same,Ki,sigma-2 binding site; [2],965 nM
"CCC(Cc1ccccc1)NCCCCc1ccccc1 (centres unmarked) [Compound 101, N-(4-phenylbutyl)-1-phenyl-2-butylamine]",IC50,"sigma receptor; Table 6, [^3 H]DTG",15.7 nM
same,Ki,sigma-1 binding site; [1],2.7 nM
same,S1/S2 Ratio,"sigma-1 binding site; Table 10, sigma-1/sigma-2",0.026
same,IC50 ratio of sigma-1/sigma-2 (sigma-1 selective compounds),sigma-1 binding site; [6],less than 0.1
same,Ki,sigma-2 binding site; [2],104 nM
"CCCN1CCN(c2ccccc2)CC1 [Compound 64, N-Phenyl-N'-propylpiperazine]",IC50,5-HT1A receptor,784 nM
same,Ki,sigma-1 binding site; [1],81.6 nM
same,Ki,sigma-2 binding site; [2],538 nM
"C[C@@H](Cc1ccccc1)N(CCCc1ccccc1)Cc1ccccc1 [Compound 134, N-Benzyl-N-(3-phenylpropyl)-1-phenyl-2-propylamine]",IC50,sigma receptor,199 nM
same,Ki,sigma-1 binding site; SIGMA-1 KI vs. 3H-P[…],128 nM
same,S1/S2 Ratio,"sigma-1 binding site; guinea pig, microsomes",0.272
same,Ki,sigma-2 binding site; SIGMA-2 KI vs. 3H-DTG + P[…],471 nM
"NCCCCCC1CCCCC1.O=C(O)C(=O)O [Compound 126, 5-Cyclohexylpentylamine Hydrogen Oxalate]",IC50,"sigma receptor; Table 6, [^3 H]DTG",219 nM
same,Ki,sigma receptor; [4],200 nM
same,sigma-2/sigma-1 selectivity,sigma-1 binding site,13
same,Ki,sigma-1 binding site; [1],191 nM
same,S1/S2 Ratio,"sigma-1 binding site; Table 10, sigma-1/sigma-2",0.075
same,IC50,sigma-1 binding site; [5],190 nM
same,IC50 ratio of sigma-1/sigma-2 (sigma-1 selective compounds),sigma-1 binding site; [6],less than 0.1
same,Ki,sigma-2 binding site; [2],2550 nM
"c1ccc(CCCCCN2CCN(Cc3ccccc3)CC2)cc1 [Compound 129, N-Benzyl-N'-(5-phenylpentyl)-piperazine]",IC50,"sigma receptor; Table 6, [^3 H]DTG",2.29 nM
same,Ki,sigma-1 binding site; [1],0.41 nM
same,S1/S2 Ratio,"sigma-1 binding site; Table 10, sigma-1/sigma-2",.036
same,Ki,sigma-2 binding site; [2],11.3 nM
"c1ccc2cc(N3CCNCC3)ccc2c1 [Compound 60, N-(2-Naphthyl)piperazine]",Ki,sigma-1 binding site; [1],220 nM
same,Ki,sigma-2 binding site; [2],5600 nM
"CN1CCN(CC/C=C\c2ccccc2)CC1 [Compound 104, N-(4-phenyl-3(Z)-butenyl)-N'-methylpiperazine]",IC50,"sigma receptor; Table 6, [^3 H]DTG",76.2 nM
same,IC50 ratio of sigma-1/sigma-2 (sigma-1 selective compounds),sigma-1 binding site,less than 0.1
same,Ki,sigma-1 binding site; SIGMA-1 KI vs. 3H-P[…],28.7 nM
same,S1/S2 Ratio,"sigma-1 binding site; guinea pig, microsomes",0.022
same,Ki,sigma-2 binding site; [2],1310 nM
"c1ccc(CCCCCN2CCCCC2)cc1 [Compound 124, N-(5-phenylpentyl)piperidine]",IC50,"sigma receptor; Table 6, [^3 H]DTG",2.05 nM
same,sigma-2/sigma-1 selectivity,sigma-1 binding site,100
same,Ki,sigma-1 binding site; [1],0.48 nM
same,S1/S2 Ratio,"sigma-1 binding site; Table 10, sigma-1/sigma-2",0.010
same,IC50 ratio of sigma-1/sigma-2 (sigma-1 selective compounds),sigma-1 binding site; [6],less than 0.1
same,Ki,sigma-2 binding site; [2],49.9 nM
"c1ccc2cc(CCCNCCCc3ccc4ccccc4c3)ccc2c1 [Compound 70, Di-[3-(2'-Naphthyl)propyl)amine]",IC50,"sigma receptor; Table 6, [^3 H]DTG",116 nM
same,IC50,5-HT1A receptor,3890 nM
same,Ki,sigma-2 binding site; [2],10000 nM

# Reference: US6057371A, “Sigma receptor ligands and the use thereof” (Virginia Commonwealth University, priority 1992, dated 2000)
